Laboratory results from ChEMBL document CHEMBL1201862, “PubChem BioAssay data set” (2004).
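Values below derive from 48-hour exposures of cells grown in 96-well plates, with endpoints linearly interpolated between the two concentrations bracketing the appropriate inhibition level. GI50: concentration for 50% inhibition of growth.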 The source made the active and inactive calls. Rule as the data show it: active = GI50 up to about 1.1 µM and inactive = higher.

Assays:
Assay in all cases: inhibition of tumour cell growth, NCI panel, 48 h
SK-MEL-5 = test system: SK-MEL-5
U-251 = test system: U-251
NCI-H226 = test system: NCI-H226
LOX IMVI = test system: LOX IMVI
SN12C = test system: SN12C
UACC-62 = test system: UACC-62
786-0 = test system: 786-0
HCC 2998 = test system: HCC 2998
T47D = test system: T47D
SK-MEL-28 = test system: SK-MEL-28
KM12 = test system: KM12
UO-31 = test system: UO-31
CCRF-CEM = test system: CCRF-CEM
SNB-19 = test system: SNB-19
SW-620 = test system: SW-620
A549 = test system: A549
SR = test system: SR
CAKI-1 = test system: CAKI-1
SK-MEL-2 = test system: SK-MEL-2
COLO 205 = test system: COLO 205
MDA-MB-231 = test system: MDA-MB-231
ACHN = test system: ACHN
HOP-92 = test system: HOP-92
DU-145 = test system: DU-145
EKVX = test system: EKVX
M14 = test system: M14
OVCAR-8 = test system: OVCAR-8
OVCAR-3 = test system: OVCAR-3
HCT-15 = test system: HCT-15
RPMI-8226 = test system: RPMI-8226
NCI-H522 = test system: NCI-H522
Malme-3M = test system: Malme-3M
SF-268 = test system: SF-268
HL-60 = test system: HL-60
HT-29 = test system: HT-29
IGROV-1 = test system: IGROV-1
SK-OV-3 = test system: SK-OV-3
HCT-116 = test system: HCT-116
SF-295 = test system: SF-295
NCI-H23 = test system: NCI-H23
TK-10 = test system: TK-10
MOLT-4 = test system: MOLT-4
SNB-75 = test system: SNB-75
A498 = test system: A498
UACC-257 = test system: UACC-257
MCF7 = test system: MCF7
NCI-H460 = test system: NCI-H460
OVCAR-4 = test system: OVCAR-4
SF-539 = test system: SF-539
Hs-578T = test system: Hs-578T
MDA-MB-435 = test system: MDA-MB-435
RXF 393 = test system: RXF 393
HOP-62 = test system: HOP-62
OVCAR-5 = test system: OVCAR-5
PC-3 = test system: PC-3
NCI/ADR-RES = test system: NCI/ADR-RES
MDA-N = test system: MDA-N
K562 = test system: K562

COc1cc2c(cc1OS(C)(=O)=O)N=C[C@@H]1CCCN1C2=O
GI50 (SK-MEL-5): > 100 µM (inactive)
GI50 (U-251): > 100 µM (inactive)
GI50 (NCI-H226): > 100 µM (inactive)
GI50 (LOX IMVI): > 100 µM (inactive)
GI50 (SN12C): > 100 µM (inactive)
GI50 (UACC-62): > 100 µM (inactive)
GI50 (786-0): > 100 µM (inactive)
GI50 (HCC 2998): > 100 µM (inactive)
GI50 (T47D): > 100 µM (inactive)
GI50 (SK-MEL-28): > 100 µM (inactive)
GI50 (KM12): > 100 µM (inactive)
GI50 (UO-31): > 100 µM (inactive)
GI50 (CCRF-CEM): 72.3 µM (inactive)
GI50 (SNB-19): > 100 µM (inactive)
GI50 (SW-620): > 100 µM (inactive)
GI50 (A549): > 100 µM (inactive)
GI50 (SR): > 100 µM (inactive)
GI50 (CAKI-1): > 100 µM (inactive)
GI50 (SK-MEL-2): > 100 µM (inactive)
GI50 (COLO 205): > 100 µM (inactive)
GI50 (MDA-MB-231): > 100 µM (inactive)
GI50 (ACHN): > 100 µM (inactive)
GI50 (HOP-92): > 100 µM (inactive)
GI50 (DU-145): > 100 µM (inactive)
GI50 (EKVX): > 100 µM (inactive)
GI50 (M14): > 100 µM (inactive)
GI50 (OVCAR-8): > 100 µM (inactive)
GI50 (OVCAR-3): > 100 µM (inactive)
GI50 (HCT-15): > 100 µM
GI50 (RPMI-8226): > 100 µM (inactive)
GI50 (NCI-H522): > 100 µM (inactive)
GI50 (Malme-3M): > 100 µM (inactive)
GI50 (SF-268): > 100 µM (inactive)
GI50 (HL-60): > 100 µM (inactive)
GI50 (HT-29): > 100 µM (inactive)
GI50 (IGROV-1): > 100 µM (inactive)
GI50 (SK-OV-3): > 100 µM (inactive)
GI50 (HCT-116): > 100 µM (inactive)
GI50 (SF-295): > 100 µM (inactive)
GI50 (NCI-H23): > 100 µM (inactive)
GI50 (TK-10): > 100 µM (inactive)
GI50 (MOLT-4): > 100 µM (inactive)
GI50 (SNB-75): > 100 µM (inactive)
GI50 (A498): > 100 µM (inactive)
GI50 (UACC-257): > 100 µM (inactive)
GI50 (MCF7): > 100 µM (inactive)
GI50 (NCI-H460): > 100 µM (inactive)
GI50 (OVCAR-4): > 100 µM (inactive)
GI50 (SF-539): > 100 µM (inactive)
GI50 (Hs-578T): > 100 µM (inactive)
GI50 (MDA-MB-435): > 100 µM (inactive)
GI50 (RXF 393): > 100 µM (inactive)

NS(=O)(=O)c1ccc(/C=C/c2ccc(O)cc2)cc1
GI50 (SK-MEL-5): 11.4 µM (inactive)
GI50 (SN12C): 18.9 µM (inactive)
GI50 (786-0): 10.7 µM (inactive)
GI50 (HCC 2998): 19.7 µM (inactive)
GI50 (T47D): 21.1 µM (inactive)
GI50 (SK-MEL-28): 27.5 µM (inactive)
GI50 (UO-31): 8.73 µM (inactive)
GI50 (SNB-19): 44.4 µM (inactive)
GI50 (SW-620): 25.6 µM (inactive)
GI50 (SK-MEL-2): 25.9 µM (inactive)
GI50 (COLO 205): 19.9 µM (inactive)
GI50 (MDA-MB-231): 14.8 µM (inactive)
GI50 (HOP-92): 10.7 µM (inactive)
GI50 (DU-145): 16.2 µM (inactive)
GI50 (HOP-62): 31.5 µM (inactive)
GI50 (EKVX): 22.7 µM (inactive)
GI50 (M14): 24.4 µM (inactive)
GI50 (OVCAR-3): 19 µM (inactive)
GI50 (Malme-3M): 26.9 µM (inactive)
GI50 (OVCAR-5): 40.6 µM (inactive)
GI50 (SK-OV-3): 23.9 µM (inactive)
GI50 (PC-3): 18.8 µM (inactive)
GI50 (HCT-116): 23 µM (inactive)
GI50 (SF-295): 21.3 µM (inactive)
GI50 (TK-10): 43.8 µM (inactive)
GI50 (SNB-75): 15.6 µM (inactive)
GI50 (A498): 41.5 µM (inactive)
GI50 (UACC-257): 30.4 µM (inactive)
GI50 (MCF7): 17.5 µM (inactive)
GI50 (NCI/ADR-RES): 14 µM (inactive)
GI50 (NCI-H460): 18.7 µM (inactive)
GI50 (MDA-N): 33 µM (inactive)
GI50 (RXF 393): 51.6 µM (inactive)

COC(=O)/C(=C\C(=O)c1ccc(Br)cc1)NN=C(c1ccccc1)c1ccccc1
GI50 (SK-MEL-5): > 10 µM (inactive)
GI50 (LOX IMVI): > 10 µM (inactive)
GI50 (SN12C): > 10 µM (inactive)
GI50 (UACC-62): > 10 µM (inactive)
GI50 (786-0): > 10 µM (inactive)
GI50 (HCC 2998): > 10 µM (inactive)
GI50 (T47D): > 10 µM (inactive)
GI50 (SK-MEL-28): > 10 µM (inactive)
GI50 (KM12): > 10 µM (inactive)
GI50 (CCRF-CEM): > 10 µM (inactive)
GI50 (SW-620): > 10 µM (inactive)
GI50 (A549): > 10 µM (inactive)
GI50 (SR): > 10 µM (inactive)
GI50 (CAKI-1): > 10 µM (inactive)
GI50 (COLO 205): > 10 µM (inactive)
GI50 (MDA-MB-231): > 10 µM (inactive)
GI50 (HOP-92): > 10 µM (inactive)
GI50 (DU-145): > 10 µM (inactive)
GI50 (HOP-62): > 10 µM (inactive)
GI50 (EKVX): > 10 µM (inactive)
GI50 (M14): > 10 µM (inactive)
GI50 (OVCAR-8): > 10 µM (inactive)
GI50 (HCT-15): > 10 µM
GI50 (RPMI-8226): > 10 µM (inactive)
GI50 (Malme-3M): > 10 µM (inactive)
GI50 (SF-268): > 10 µM (inactive)
GI50 (K562): > 10 µM (inactive)
GI50 (HL-60): > 10 µM (inactive)
GI50 (HT-29): > 10 µM (inactive)
GI50 (IGROV-1): > 10 µM (inactive)
GI50 (SK-OV-3): > 10 µM (inactive)
GI50 (PC-3): > 10 µM (inactive)
GI50 (SF-295): > 10 µM (inactive)
GI50 (NCI-H23): > 10 µM (inactive)
GI50 (TK-10): > 10 µM (inactive)
GI50 (MOLT-4): > 10 µM (inactive)
GI50 (SNB-75): > 10 µM (inactive)
GI50 (UACC-257): > 10 µM (inactive)
GI50 (MCF7): > 10 µM (inactive)
GI50 (OVCAR-4): > 10 µM (inactive)
GI50 (MDA-N): > 10 µM (inactive)
GI50 (MDA-MB-435): > 10 µM (inactive)
GI50 (RXF 393): > 10 µM (inactive)

CCOC(=O)c1ccc(NCc2ccc3nc(OC)c(OC)nc3c2)cc1
GI50 (SK-MEL-5): > 100 µM (inactive)
GI50 (U-251): > 100 µM (inactive)
GI50 (NCI-H226): > 100 µM (inactive)
GI50 (LOX IMVI): > 100 µM (inactive)
GI50 (SN12C): > 100 µM (inactive)
GI50 (UACC-62): > 100 µM (inactive)
GI50 (786-0): 94.8 µM (inactive)
GI50 (HCC 2998): > 100 µM (inactive)
GI50 (T47D): 57.1 µM (inactive)
GI50 (SK-MEL-28): > 100 µM (inactive)
GI50 (KM12): > 100 µM (inactive)
GI50 (UO-31): > 100 µM (inactive)
GI50 (CCRF-CEM): > 100 µM (inactive)
GI50 (SNB-19): > 100 µM (inactive)
GI50 (SW-620): > 100 µM (inactive)
GI50 (A549): > 100 µM (inactive)
GI50 (SR): > 100 µM (inactive)
GI50 (CAKI-1): > 100 µM (inactive)
GI50 (SK-MEL-2): > 100 µM (inactive)
GI50 (COLO 205): > 100 µM (inactive)
GI50 (MDA-MB-231): 72.6 µM (inactive)
GI50 (ACHN): > 100 µM (inactive)
GI50 (HOP-92): 58.3 µM (inactive)
GI50 (DU-145): > 100 µM (inactive)
GI50 (HOP-62): > 100 µM (inactive)
GI50 (EKVX): > 100 µM (inactive)
GI50 (M14): > 100 µM (inactive)
GI50 (OVCAR-8): 84.7 µM (inactive)
GI50 (OVCAR-3): > 100 µM (inactive)
GI50 (HCT-15): > 100 µM
GI50 (NCI-H522): > 100 µM (inactive)
GI50 (Malme-3M): > 100 µM (inactive)
GI50 (SF-268): > 100 µM (inactive)
GI50 (K562): > 100 µM (inactive)
GI50 (HL-60): 47.8 µM (inactive)
GI50 (HT-29): > 100 µM (inactive)
GI50 (OVCAR-5): > 100 µM (inactive)
GI50 (IGROV-1): > 100 µM (inactive)
GI50 (SK-OV-3): > 100 µM (inactive)
GI50 (PC-3): > 100 µM (inactive)
GI50 (HCT-116): 92.3 µM (inactive)
GI50 (SF-295): > 100 µM (inactive)
GI50 (NCI-H23): > 100 µM (inactive)
GI50 (MOLT-4): > 100 µM (inactive)
GI50 (SNB-75): 33.7 µM (inactive)
GI50 (A498): > 100 µM (inactive)
GI50 (UACC-257): > 100 µM (inactive)
GI50 (MCF7): > 100 µM (inactive)
GI50 (NCI/ADR-RES): > 100 µM (inactive)
GI50 (NCI-H460): > 100 µM (inactive)
GI50 (OVCAR-4): 88.7 µM (inactive)
GI50 (MDA-N): > 100 µM (inactive)
GI50 (SF-539): > 100 µM (inactive)
GI50 (MDA-MB-435): > 100 µM (inactive)
